Structures can show the parent of a compound that is named as a salt. Where two headings read alike, the source gives them in different places.

The source of these data is patent publication US11434226B2, “Salt and polymorph of benzopyrimidinone compound and pharmaceutical composition and use thereof” (SHANGHAI INSTITUTE OF MATERIA MEDICA, CHINESE ACADEMY OF …, priority 2017, dated 2022).

Data set [1] can be described thus: Comparison of solubility of compound Z and its salts. In kind it is physicochemical. To be noted: for solubility: thermodynamic from solid, read-out: Solubility. From the text: An appropriate amount of the sample was weighed in a glass test tube and a selected solvent was gradually added therein to observe the clarification.
The nature of data set [2]: Comparison of compound appearance and characters (odor). In kind it is physicochemical. From the text:
The appearance and characters of the basic compound Z prepared in Example 16 and different salts of compound Z prepared in Examples 1-2, 5-6, 9 were observed, the results are shown in the table below: […]

Data set [3] can be described thus: Chemical stability by stress testing (high temperature, high humidity, illumination). The class given is physicochemical. The conditions noted are these: for stability, in words: high temperature, light and high humidity conditions. From the text: The chemical stability of the basic compound Z prepared in Example 16 and the salts of compound Z prepared in Examples 5, 9 and 10 was compared through a stress testing, the results were shown in the table below: […]

Data set [4] in a line: In vivo pharmacokinetic experiment in rats. The conditions noted are these: by gavage. How it is done: The in vivo pharmacokinetic experiment in rats were carried out for the basic compound Z prepared in Example 16, the hydrochlorate of compound Z prepared in Example 9, the succinate of compound Z prepared in Example 2, the fumarate of compound Z prepared in Example 3 (administered by gavage, dose 3 mg/kg), the results were shown in FIG. 8 of the specification.

A short description of data set [5]: Hygroscopicity of solid forms of hydrochlorate of compound Z. In kind it is physicochemical. The text has this: (§1) The properties of crystalline form A prepared in Examples 11 or 12, crystalline form B prepared in Example 14 and amorphous substance prepared in Example 15 were compared, the results were shown in the following table 6.
Data set [6] is described as follows: Crystal stability of solid forms of hydrochlorate of compound Z. The class given is physicochemical.
From the text: as §1

Setting [7] is: High humidity (25° C., 92.5% RH), 5 days.
Setting [8] is: High humidity (25° C., 92.5% RH), 10 days.
[9] abbreviates: high temperature (60° C.), 5 days.
Where [10] appears, read: high temperature (60° C.), 10 days.
The mark [11] stands for this setting: illumination (4500 lx ± 500 lx), 5 days.
Where [12] appears, read: illumination (4500 lx ± 500 lx), 10 days.

The term solubility denotes how much of the substance goes into solution per volume. In the case of `CCCOc1ccc(NC(=O)CN2CCN(C)CC2)cc1-c1nc(CC)c(CC)c(=O)[nH]1.Cl` [hydrochlorate of compound Z, 5,6-diethyl-2-[2-n-propoxy-5-(2-(4-methylpiperazin-1-yl)acetamido)phenyl]pyrimidine-4(3H)-one Hydrochlorate], the “solubility, in words” value in data set [1] is given as “good solubility”. Moreover, the solubility in data set [1] (selected solvent of pH 2 (composition not named), simulated gastric fluid, pH = 2) was greater than 22.8 mg/mL; in data set [1] (selected solvent of pH 4.5 (composition not named), aqueous buffer, pH = 4.5), greater than 23.6 mg/mL; in data set [1] (selected solvent of pH 6.8 (composition not named), aqueous buffer, pH = 6.8) it was greater than 26.6 mg/mL; in data set [1] (water (deionized)), greater than 25 mg/mL. Besides, in data set [2], the odor result was “No bad smell”. In addition, the characters entry in data set [3] (0 days), in data set [3] (setting [7]), in data set [3] (setting [8]), in data set [3] (setting [9]), in data set [3] (setting [10]) and in data set [3] (setting [11]) was “White” throughout. Further, the characters result in data set [3] (setting [12]) is “White”. In addition, the purity in data set [3] (0 days) was found to be 99.77%; in data set [3] (setting [7]), 99.73%; in data set [3] (setting [8]) it was 99.77%; in data set [3] (setting [9]), 99.65%; in data set [3] (setting [10]), 99.71%; in data set [3] (setting [11]) it was 99.79%. This molecule also had a purity in data set [3] (setting [12]) of 99.72%. The “stability, in words” value in data set [3] is reported as “high stability”; in data set [3] (listed as hydrochlorate) it was “stable”. Moreover, in data set [4] (3 mg/kg), the “oral bioavailability, in words” value is on record as “high oral bioavailability”. Besides, the “in vivo pharmacokinetic properties (plasma concentration-time curve, FIG. 8), in words” value in data set [4] (dose 3 mg/kg, compared with compound Z) is given as “significantly better”.

On to `CCCOc1ccc(NC(=O)CN2CCN(C)CC2)cc1-c1nc(CC)c(CC)c(=O)[nH]1` [form A, 5,6-diethyl-2-[2-n-propoxy-5-(2-(4-methylpiperazin-1-yl)acetamido)phenyl]pyrimidin-4(3H)-one hydrochloride monohydrate (Form A)], for which the “hygroscopicity, in words” value in data set [5] is “low hygroscopicity”. Also, the “hygroscopicity, water absorption” value was 65% RH, water absorption 2.48% in data set [5] (65% RH) and 80% RH, water absorption 3.41% in data set [5] (80% RH). The Crystal stability result in data set [6] is recorded as “stable”; in data set [6] (listed as crystal form A), “stable properties”.
